PubChem BioAssay AID488890 (Southern Research Specialized Biocontainment Screening …, 2010)
Inconclusive results are not listed. Calls of active or inactive are those of the source. How the calls were made is not given here.

Tested on: Mycobacterium tuberculosis non-replicating, growth inhibition
Experiment: growth inhibition of non-replicating M. tuberculosis (AID 488890)

| SMILES | IC50 |
| --- | --- |
| CC(=O)OCCN(C)c1cc(SC(C)C)c2nonc2c1[N+](=O)[O-] | 13.7 µM (inactive) |
| O=C(N/N=C\c1ccco1)c1cncc(Br)c1 | 38.1 µM (inactive) |
| CCN(CC)S(=O)(=O)c1ccc(C(=O)OCn2nnc3ccccc3c2=O)cc1 | 15.4 µM (inactive) |
| CC(C)OC(=O)c1c2c(n3ccccc13)C(=O)c1ccccc1C2=O | 9.5 µM |
| Clc1ccc(OCCCNCc2ccccc2)c2ccccc12 | 5.99 µM |
| O=C(CCC1CCCCC1)NCc1ccc(F)cc1 | 5.27 µM |
| CCCCNC(=O)COC(=O)c1cc(F)c(F)cc1Cl | 5.61 µM |
| CCCCOC(=O)c1ccc(OC(=O)c2cccnc2)cc1 | 13.4 µM (inactive) |
| CCCCNC(=O)N1CCc2ccccc2C1 | 5.03 µM |
| Nc1nnnn1/N=C/C(Br)=C/c1ccccc1 | 13.5 µM (inactive) |
| O=C(CCNc1cccc(Cl)c1)c1cccs1 | 11 µM (inactive) |
| C/C(=N\NC(=O)C(C)Oc1ccc([N+](=O)[O-])cc1)c1ccccn1 (stereo not drawn) | 9.84 µM |
| COc1cccc(OCC(=O)NNC(=O)C(=O)Nc2cccc(C)c2)c1 | 6.72 µM |
| Cc1cccc(OCC(O)Cn2c(=N)n(Cc3ccccc3)c3ccccc32)c1 (stereo not drawn) | 20.4 µM (inactive) |
| Nc1nonc1C(=O)NCCN=Cc1cc(Cc2ccccc2)cc(Br)c1O | 5.63 µM |
| Cc1cc(Br)ccc1OCC(=O)NNC(=O)C(=O)Nc1ccccc1 | 1.22 µM |
| Cc1cc(NC(=O)c2ccccc2F)n(-c2nc3ccccc3[nH]2)n1 | 7.5 µM |
| O=C(CN1CCC(Cc2ccccc2)CC1)NC(=O)NC1CCCCC1 | 19 µM (inactive) |
| Cc1ccccc1OCCCCc1c(C)n[nH]c1C | 13.1 µM (inactive) |
| N#Cc1ccc(-c2ccc(OCC(=O)Nc3cccnc3)cc2)cc1 | 1.43 µM |
| Cc1nc2ccc(NC(=O)c3ccc([N+](=O)[O-])cc3[N+](=O)[O-])cc2s1 | 7.88 µM |

| SMILES | IC50 |
| --- | --- |
| COc1ccc(/C=C2\COc3ccccc3C2=O)cc1OC | 12.5 µM (inactive) |
| CN(C)CC/C=C1\c2cc(Cl)ccc2Sc2cc(F)c(F)cc21 | 20.2 µM (inactive) |
| COc1ccc(COc2cccc(C=O)c2)cc1 | 25.8 µM (inactive) |
| Cc1ccc(CC(=O)Nc2ccc(Cl)cn2)cc1 | 1.06 µM |
| O=C(Oc1cccnc1)c1ccc(Cl)c(Cl)c1 | 3.86 µM |
| c1ccc(C[C@H]2CNCCN2CCCCC2CCCCC2)cc1 | 17.7 µM (inactive) |
| CCN1/C(=C(\O)c2ccccc2)C(=O)c2ccccc2S1(=O)=O | 15.8 µM (inactive) |
| CCOC(=O)c1c(-c2ccccc2)csc1NC(=O)CCN1CCOCC1 | 24.4 µM (inactive) |
| Cc1cc2ncn(/N=C/c3ccc([N+](=O)[O-])s3)c2cc1C | 1.09 µM |
| COc1ccc(NCC(=O)N2CCCC2)cc1Cl | 10.8 µM (inactive) |
| COc1cccc(COC(=O)CCNC(=O)c2ccc(Br)cc2)c1OC | 15.6 µM (inactive) |
| CCCCCC(=O)N/N=C(\C)c1ccccn1 | 9.55 µM |
| CC1=NN(C(=O)c2csc(C(C)C)c2)C(O)(C(F)(F)F)C1 (stereo not drawn) | 0.36 µM |
| O=c1c2cc(Cl)ccc2oc2nc3n(c(=O)c12)CCCS3 | 3 µM |
| COC(=O)COc1ccc2c(=O)c(-c3ccccc3OC)coc2c1 | 7.87 µM |
| CNC(=S)N1CCN(c2c(F)cc3c(=O)c(C(=O)O)cn(C4CC4)c3c2OC)CC1C (stereo not drawn) | 0.42 µM |
| CC(C)(O)C#Cc1ccc(C(=O)Nc2ccc3c(c2)OCO3)s1 | 5.97 µM |
| CCCNC1=C(N(C(C)=O)c2cccc(F)c2)C(=O)c2ccccc2C1=O | 5.89 µM |
| C/C(=N\NC(=O)c1c[nH]c2ccccc12)c1ccccn1 | 6.38 µM |
| CCC(=O)c1ccc(OCc2ccc(C(=O)OC)cc2)cc1 | 10.8 µM (inactive) |
| CCn1nnc(NC(=O)c2ccc(-c3ccc(Cl)cc3)o2)n1 | 3.07 µM |

| SMILES | IC50 |
| --- | --- |
| Cc1cc(NCc2ccccn2)n2ncc(-c3ccccc3)c2n1 | 1.93 µM |
| CCCc1nnc(NC(=O)c2cc3ccccc3oc2=O)s1 | 2.34 µM |
| COc1ccc(C2=Nc3ccccc3OC2)cc1 | 5.2 µM |
| Cc1cc(C(=O)N/N=C/c2ccc(OC(=O)c3ccccc3Br)cc2)n[nH]1 | 15.6 µM (inactive) |
| O=C(OCn1nnc2ccccc2c1=O)C1CCCCC1 | 22 µM (inactive) |
| COc1c[nH]n(C2CCCCC2)c(=O)c1=O | 8.76 µM |
| Cc1ccc(OC(=O)c2sc3ncn(C)c(=O)c3c2C)cc1 | 14.2 µM (inactive) |
| Cc1cccnc1NC(=O)c1c(O)c2ccccc2n(C)c1=O | 32 µM (inactive) |
| CCN1CCN(c2ccc(S(=O)(=O)N3CCCCC3)cc2NC(=O)c2ccc([N+](=O)[O-])s2)CC1 | 7.39 µM |
| O=C(N/N=C\c1ccc([N+](=O)[O-])o1)c1cncc(Br)c1 | 8.55 µM |
| CCC1CCC(c2nnc(-c3ccc([N+](=O)[O-])cc3)o2)CC1 (stereo not drawn) | < 0.1 µM |
| CC(=O)Nc1cccc(-c2nc3ccccc3c(=O)o2)c1 | 7.84 µM |
| CCOC(=O)C1=C(c2ccccc2)NC(N)=NC1c1ccc(OCc2ccc(C(=O)OC)cc2)cc1 (stereo not drawn) | 5.85 µM |
| NC(=O)COc1ccc2cc(-c3ccc(F)cc3)c(=O)oc2c1 | 18 µM (inactive) |
| Cc1cc(-c2n[nH]c(=S)n2/N=C/C(Br)=C/c2ccccc2)n[nH]1 | 19.8 µM (inactive) |
| Cc1nc2scc(-c3ccccc3)c2c(=O)o1 | 14.8 µM (inactive) |
| Cc1cccc(C(=O)Nc2nnc(-c3cccnc3)o2)c1 | 7.46 µM |
| O=C1CC(N2CCN(c3ccccc3)CC2)C(=O)N1CCc1ccccc1 (stereo not drawn) | 14 µM (inactive) |
| COC(=O)c1ccc2c(c1O)C(=O)c1ccccc1C2=O | 1.44 µM |
| O=c1cc(-c2ccccc2Cl)oc2c([N+](=O)[O-])c(O)cc(O)c12 | 5.05 µM |
| O=C(Nc1nc2ccccc2[nH]1)c1ccc(F)cc1 | 13 µM (inactive) |

| SMILES | IC50 |
| --- | --- |
| Cc1cc(C)nc(/N=C(\N)Nc2ccc(-c3ccccc3)cc2)n1 | 3.5 µM |
| CCOC(=O)C1CCCN(Cc2nc(Cc3ccccc3Cl)no2)C1 (stereo not drawn) | 27.1 µM (inactive) |
| O=C(C1CCN(C2CC(=O)N(Cc3ccccc3)C2=O)CC1)N1CCCCCC1 (stereo not drawn) | 7.22 µM |
| CCN(CC)c1ccc(NC2CC(=O)N(CCc3ccc(OC)cc3)C2=O)cc1 (stereo not drawn) | 25.6 µM (inactive) |
| CC(NCCCOc1cccc2ccccc12)c1ccccc1 (stereo not drawn) | 15.5 µM (inactive) |
| O=C(O/N=C/c1ccc2c(c1)OCO2)c1ccc([N+](=O)[O-])cc1 | 11.6 µM (inactive) |
| O=C(CCSc1ccccc1)N1CCCC1 | 3.33 µM |
| O=C(Nc1nnc(C2COc3ccccc3O2)o1)c1ccc(F)cc1 (stereo not drawn) | 7.16 µM |
| CCCc1cc(=O)n2[nH]c(C)c(-c3ccccc3)c2n1 | 11.4 µM (inactive) |
| CN(C)S(=O)(=O)Oc1ccc(C(=O)Nc2cccc(C(F)(F)F)c2)cc1 | 13.5 µM (inactive) |
| CNC(=O)COC(=O)c1ccc(-c2nc3ccccc3s2)s1 | 4.97 µM |
| O=C(COC(=O)CCc1c[nH]c2ccccc12)NCc1ccc2c(c1)OCO2 | 9.66 µM |
| O=C(Cc1ccc(Cl)cc1)OCC(=O)c1ccc[nH]1 | 5.58 µM |
| Cc1noc2ncnc(Sc3ccc(Cl)cc3)c12 | 10.9 µM (inactive) |
| Cc1cc(C)nc(-n2nc(C)cc2Nc2ccccc2)n1 | 5.25 µM |
| CCOC(=O)c1cc([N+](=O)[O-])c([N+](=O)[O-])cc1NC(C)=O | 2.44 µM |
| CCOCC(=O)Nc1nc2ccc(C)cc2s1 | 2.06 µM |
| O=C(NC1CCCC1)c1cc(-c2cccs2)on1 | 5.66 µM |
| CC1=Nc2ccccc2/C1=C/c1sc(=N)n(-c2nccs2)c1O | 1.51 µM |
| Cc1cccc(NC(=O)COC(=O)CCc2c[nH]c3ccccc23)c1 | 1.94 µM |
